# Legend:
# mPTP [1] = assay: mPTP activity (Ca2+ retention) assay in isolated rat liver mitochondria; type: biochemical; details: examples tested by different contract research organisations, believed comparable
# Procedure, shortened: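 pIC50 was taken from Fluo5N fluorescence at 10 min after a 75 μM CaCl2 bolus, scaled between DMSO (0%) and 5 μM cyclosporin A (100%). Compounds, ten half-log concentrations from 30 μM to 1 nM final, sat 10 min at RT with fresh female Sprague Dawley rat liver mitochondria energized by succinate plus rotenone.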
# mPTP [2] = assay: mPTP activity assay in isolated rat brain mitochondria; type: biochemical; details: for mPTP Rat brain pIC50: fluorescence at 10 min timepoint
# Experimental: MPTP activity was measured in brain mitochondria freshly isolated from female Sprague Dawley (250 to 300 gram) rats. Anaesthetised rats were perfused in-situ with −40 ml cold Dulbecco's Phosphate Buffered Saline (DPBS), then brains dissected and transferred into 30 ml Isolation Buffer (225 mM mannitol, 75 mM sucrose, 1 mM EGTA, adjusted to pH 7.4 with 1M NaOH). The brain was minced using tweezers and a scalpel into −5 mm pieces then transferred into a 50 ml Potterton Dounce homogenization tube on ice containing 10 ml ice-cold isolation buffer (as above with addition of Complete Protease inhibitor; 1 tablet per 50 ml buffer). Homogenisation was carried out using a teflon pestle at 1800 rpm. The slurry was centrifuged at 2000 g for 10 min at 4° C., then the supernatant centrifuged at 12,000 g for 9 min. The pellet was resuspended with a dounce homogeniser in isolation buffer as above but with the addition of 0.02% digitonin, centrifuged at 12,000 g for 11 min and finally resuspended in 5 ml modified isolation buffer (as above but with EGTA reduced to 0.1 mM).
# Test compounds were prepared in 384 well polypropylene assay plates as described above for the liver mitochondria assay. A stock mitochondria/Fluo5N assay solution was prepared in 5.6 ml assay buffer (120 mM mannitol, 40 mM MOPS, 5 mM KH2PO4, 60 mM KCl, 10 mM pyruvate, 2 mM malate, 2 mM MgCl2, 20 μM ADP, 1.26 μM oligomycin A, adjusted to pH 7.4) supplemented with Fluo5N pentapotassium salt (2 μM) and 1 ml mitochondria suspension, then transferred (15 μl) into the assay plate containing test compounds and incubated for 10 min at RT. Assay plates were then transferred to a FLIPR Tetra plate reader (Molecular Devices). Dye fluorescence was then measured every 3 sec for a total of 10 min.
Compound,mPTP Rat liver pIC50 (mPTP [1]),mPTP Rat brain pIC50 (mPTP [2]),mPTP rat brain mitochondria pIC50 (mPTP [2]; Fluo5N fluorescence at 10 min after 75 μM Ca2+)
"CC(CNC(=O)c1ncc(F)c(=O)[nH]1)(Cc1ccc(F)cc1F)C1CC1 (single isomer, unassigned) [Example 257, N-[2-cyclopropyl-3-(2,4-difluorophenyl)-2-methylpropyl]-5-fluoro-4-oxo-3H-pyrimidine-2-carboxamide]",6.82,8.37,–
"CC(CNC(=O)c1ncc(F)c(=O)[nH]1)(Cc1ccc(F)cc1F)C1CC1 (single isomer, unassigned) [Example 258, N-[2-cyclopropyl-3-(2,4-difluorophenyl)-2-methylpropyl]-5-fluoro-4-oxo-3H-pyrimidine-2-carboxamide]",6.39,7.71,–
"CC(CNC(=O)c1cc(O)no1)(Cc1ccc(F)cc1F)C1CC1 (single isomer, unassigned) [Example 269]",6.78,7.73,–
"CC(CNC(=O)c1cc(O)no1)(Cc1ccc(F)cc1F)C1CC1 (single isomer, unassigned) [Example 270]",5.39,6.51,–
"CC(CNC(=O)c1cc(O)no1)(Cc1ccc(F)cc1)C1CC1 (single isomer, unassigned) [Example 271]",6.83,7.59,–
"CC(CNC(=O)c1cc(O)no1)(Cc1ccc(F)cc1)C1CC1 (single isomer, unassigned) [Example 272]",4.52,6.35,–
"CC(CNC(=O)c1noc(=O)[nH]1)(Cc1ccc(F)cc1F)C1CC1 (single isomer, unassigned) [Example 273]",6.50,7.92,–
"CC(CNC(=O)c1noc(=O)[nH]1)(Cc1ccc(F)cc1F)C1CC1 (single isomer, unassigned) [Example 274]",6.85,8.5,–
"CC(CNC(=O)c1noc(=O)[nH]1)(Cc1ccc(F)cc1)C1CC1 (single isomer, unassigned) [Example 275, N-(2-cyclopropyl-3-(4-fluorophenyl)-2-methylpropyl)-5-oxo-4,5-dihydro-1,2,4-oxadiazole-3-carboxamide]",6.75,8.57,highest activity

# Second part, the compound after the results:
mPTP Rat liver pIC50 (mPTP [1]),mPTP Rat brain pIC50 (mPTP [2]),mPTP rat brain mitochondria pIC50 (mPTP [2]; Fluo5N fluorescence at 10 min after 75 μM Ca2+),Compound
7.13,8.29,–,"CC(CNC(=O)c1ncc(F)c(=O)[nH]1)(Cc1ccc(F)cc1)C1CC1 (single isomer, unassigned) [Example 261, N-[2-cyclopropyl-3-(4-fluorophenyl)-2-methylpropyl]-5-fluoro-4-oxo-3H-pyrimidine-2-carboxamide]"
6.00,7.45,–,"CC(CNC(=O)c1ncc(F)c(=O)[nH]1)(Cc1ccc(F)cc1)C1CC1 (single isomer, unassigned) [Example 262, N-[2-cyclopropyl-3-(4-fluorophenyl)-2-methylpropyl]-5-fluoro-4-oxo-3H-pyrimidine-2-carboxamide]"
6.54,8.09,–,"CC(CNC(=O)c1ncc(Cl)c(=O)[nH]1)(Cc1ccc(F)cc1)C1CC1 (single isomer, unassigned) [Example 263, 5-Chloro-N-[2-cyclopropyl-3-(4-fluorophenyl)-2-methylpropyl]-4-oxo-3H-pyrimidine-2-carboxamide]"
6.09,7.29,–,"CC(CNC(=O)c1ncc(Cl)c(=O)[nH]1)(Cc1ccc(F)cc1)C1CC1 (single isomer, unassigned) [Example 264, 5-Chloro-N-[2-cyclopropyl-3-(4-fluorophenyl)-2-methylpropyl]-4-oxo-3H-pyrimidine-2-carboxamide]"
6.55,7.32,–,"Cc1cnc(C(=O)NCC(C)(Cc2ccc(F)cc2)C2CC2)[nH]c1=O (single isomer, unassigned) [Example 267]"
6.04,7.02,–,"Cc1cnc(C(=O)NCC(C)(Cc2ccc(F)cc2)C2CC2)[nH]c1=O (single isomer, unassigned) [Example 268]"
